Among the data in PubChem BioAssay (NCI) are TGI values, retold here.

What all share (experiment): NCI-60 cell line screen, 48 h
Assay [1] deals with TK-10 renal.
Assay [2] concerns HS 578T breast.
The subject of assay [3] is M14 melanoma.
For assay [4], the system named is U251 CNS.
Assay [5] deals with HOP-62 NSCLC.
The subject of assay [6] is MDA-MB-435.
Assay [7] has as its system NCI/ADR-RES ovarian.
Assay [8] deals with OVCAR-4 ovarian.
Assay [9] has as its system UO-31 renal.
Assay [10] concerns SR leukemia.
Assay [11] has as its system PC-3 prostate.

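Dose response: 5 concentrations. Exposure: 48 h. Format: 96-well plates. Endpoint: linear interpolation; highest concentration if not reached. TGI: total growth inhibition.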

Consider `Cc1ccc(C2(c3ccc(F)cc3)OC(=O)c3ccccc32)c(O)c1` (stereo not given), for which the TGI in assay [1] was determined as 29.6 µM; in [2], 77.4 µM; in assay [3] it was 30.1 µM; in [4], 46.2 µM; in assay [5] it was 28.8 µM; in assay [6] it was 31.6 µM. Also, the TGI in assay [7] came out at 46.8 µM; in assay [8] it was 41.1 µM; in assay [9], 22.4 µM.
On to `O=C1CN(c2cccc(Cl)c2)C(=O)CN1NCNN1CC(=O)N(c2cccc(Cl)c2)CC1=O`, for which the TGI in [1], in assay [2], in [3], in assay [4], in [5] and in assay [6] was above 100 µM throughout. The TGI in [10], in assay [11], in [8] and in [9] was above 100 µM throughout.
Turning to `Clc1ccc(C[P+](c2ccccc2)(c2ccccc2)c2ccccc2)cc1Cl`, the TGI in [1] is 17.6 µM; in [3], 12.5 µM; in [4], 10.6 µM; in assay [5], 21.2 µM; in [10], above 100 µM; in [8], 19.5 µM.
In the case of `Cn1c(=O)c2c(nc3sc4ccccc4c(=O)n32)n(C)c1=O`, the TGI in assay [1], in [2], in assay [3], in assay [4], in [5] and in [6] was above 100 µM throughout. Further, the TGI in assay [7], in assay [11], in assay [8] and in assay [9] was above 100 µM throughout.
Turning to `C/C(N=NS(=O)(=O)c1ccc([N+](=O)[O-])cc1)=C1\C=CC=CN1O`, the TGI in [1], in [3], in assay [4], in [5], in [10] and in [8] was above 100 µM in each case. This molecule yielded a TGI in assay [9] above 100 µM.
On to `C[C@@H]1CC(=O)C[C@@H]2CC[C@H]3[C@@H]4CC[C@H](OC(=O)c5cccc6cc7ccccc7nc56)[C@H]4CC[C@@H]3[C@H]21`, for which the TGI in assay [1] was 65.9 µM; in [2] it was above 100 µM; in [3] it was 31.6 µM; in assay [4], 19.8 µM; in assay [5] it was 52.3 µM; in assay [6] it was 35.1 µM. For the same molecule, the TGI in assay [7] turned out to be 55.1 µM; in [11], 27.1 µM; in assay [8], 30.9 µM; in assay [9] it was 31 µM.
Consider `C/C(=N\Nc1nc2ccccc2s1)c1cc2ccccc2cn1`, for which the TGI is above 100 µM in [1]; 23.2 µM in [3]; above 100 µM in assay [4]; 41.7 µM in assay [5]; 72.8 µM in [6]; 42 µM in assay [7]. For the same molecule, the TGI was above 100 µM in assay [11], 62.2 µM in assay [8] and 14.8 µM in assay [9].
With `CCn1c2ccccc2c2c(-c3ccccc3)cc3c(c21)C(=O)N(c1ccccc1)C3=O`, the TGI in assay [1], in [3], in assay [4], in [10], in [8] and in assay [9] was above 100 µM in each case.
Regarding `O=c1[nH]c(NCc2ccc(Cl)cc2)nc2nc[nH]c12`, the TGI in [1], in [2], in assay [3], in [4], in [5] and in assay [6] was above 100 µM throughout. The TGI in assay [7], in [11], in assay [8] and in assay [9] was above 100 µM each time.
As for `CC(C)C1=CC(=O)[C@@](C)(C2[C@H](O)C[C@@]3(C)[C@@H]4CC=C5[C@@H](CC[C@@H](OC6OCC(O)C(O)C6OC6OC(C)C(O)C(O)C6O)C5(C)C)[C@]4(C)C(=O)C[C@]23C)O1` (stereo not given in full), the TGI in assay [2], in assay [3], in [4], in assay [5], in [6] and in assay [7] was above 100 µM throughout. Besides, the TGI in assay [11], in assay [8] and in assay [9] was above 100 µM in each case.
Take `CC1(C)OC2OC(C(COS(=O)(=O)C(F)(F)F)N=[N+]=[N-])C(OC(=O)c3ccccc3)C2O1` (stereo not given): the TGI in [1], in assay [2], in assay [3], in assay [4], in assay [5] and in [6] was above 100 µM each time. Besides, the TGI in [7], in [11], in assay [8] and in assay [9] was above 100 µM each time.
Take `COc1cc2c(cc1OC)C(=O)/C(=C/c1cc(C)cc(C)c1)C2`: the TGI in [1] is above 100 µM; in assay [2] it was above 100 µM; in assay [3] it was above 100 µM; in [4] it was above 81.8 µM; in assay [5] it was above 61.2 µM; in assay [7], above 38 µM. The results for the TGI in assay [11], in assay [8] and in [9] were 24.2 µM, above 100 µM and above 100 µM, respectively.
In the case of `C=C1C(=O)O[C@H]2C[C@@H]1[C@@H](O)[C@H](O)[C@@H](C)CCCC(C)=CCC[C@@]2(C)O`, the TGI in [1] was 30.4 µM; in assay [2] it was 43.9 µM; in assay [3], 29.8 µM; in assay [4] it was 64.5 µM; in assay [5], above 100 µM; in assay [6], above 100 µM. The TGI is above 100 µM in assay [10], 43.9 µM in assay [11], 83.9 µM in assay [8] and 28.5 µM in [9].
